Test results: US7671054B1, “Reverse-turn mimetics and method relating thereto” (Choongwae Pharma Corporation, priority 2001, dated 2010)

Tested on: TCF4/β-catenin transcription (TOPFlash) in SW480 cells
Assay: Reporter gene assay (TOPFlash luciferase)
Type: cell-based
Details: Homo sapiens, SW480, Table 4; Reporter gene assay as described in Example 6; read-out: IC50
Method: SW480 cells were transfected with the usage of Superfect™ transfect reagent (Qiagen, 301307). Cells were trypsinized briefly 1 day before transfection and plated on 6 well plate (5×10^5 cells/well) so that they were 50-80% confluent on the day of transfection.
Four microgram (TOPFlash) and one microgram (pRL-null) of DNAs were diluted in 150 μl of serum-free medium, and 30 μl of Superfect™ transfect reagent was added. The DNA-Superfect mixture was incubated at room temperature for 15 min, and then, 1 ml of 10% FBS DMEM was added to this complex for an additional 3 hours of incubation. While complexes were forming, cells were washed with PBS twice without antibiotics.
The DNA-Superfect™ transfect reagent complexes were applied to the cells before incubating at 37° C. at 5% CO2 for 3 hours. After incubation, recovery medium with 10% FBS was added to bring the final volume to 1.18 ml. After 3 hours incubation, the cells were harvested and reseeded to 96 well plate (3×10^4 cells/well). After overnight incubation at 37° C. at 5% CO2, the cells were treated with Compound A for 24 hours. Finally, the activity was checked by means of luciferase assay (Promega, E1960).

SMILES	IC50 [µM]
C=CCN1CC(=O)N2C(CN(Cc3cccc(N(C)C)c3)C(=O)[C@@H]2Cc2ccc(O)cc2)N1C(=O)NCc1ccccc1 (single isomer, unassigned) [Compound 192]	1.3 ± 0.3
Cc1ccc(CC2C(=O)N(CCc3ccccc3)CC3N2C(=O)CN(C)N3C(=O)Nc2ccc(C(F)(F)F)cc2)cc1 (centres unmarked) [Compound 2]	12.6
CN1CC(=O)N2C(Cc3ccc(O)cc3)C(=O)N(Cc3cccc4ccccc34)CC2N1C(=O)NCc1ccc(Cl)c(Cl)c1 (centres unmarked) [Compound 3]	13.9
CN1CC(=O)N2[C@@H](Cc3ccc(O)cc3)C(=O)N(Cc3cccc4ccccc34)C[C@@H]2N1C(=O)Nc1ccc(C(F)(F)F)cc1 [Compound 4]	11.8
CN1CC(=O)N2C(CN(Cc3ccccc3F)C(=O)[C@@H]2Cc2ccc(O)cc2)N1C(=O)NCc1ccccc1 (some centres unmarked) [Compound 8]	14.5
CN1CC(=O)N2C(CN(Cc3cccc(F)c3)C(=O)[C@@H]2Cc2ccc(O)cc2)N1C(=O)NCc1ccccc1 (some centres unmarked) [Compound 9]	6.7
CN1CC(=O)N2C(CN(Cc3ccc(F)cc3)C(=O)[C@@H]2Cc2ccc(O)cc2)N1C(=O)NCc1ccccc1 (some centres unmarked) [Compound 10]	4
CN1CC(=O)N2C(CN(Cc3ccc(F)cc3F)C(=O)[C@@H]2Cc2ccc(O)cc2)N1C(=O)NCc1ccccc1 (some centres unmarked) [Compound 13]	6.4
CN1CC(=O)N2C(CN(Cc3cc(F)ccc3F)C(=O)[C@@H]2Cc2ccc(O)cc2)N1C(=O)NCc1ccccc1 (some centres unmarked) [Compound 14]	17.7
CN1CC(=O)N2C(CN(Cc3cccc(C(F)(F)F)c3)C(=O)[C@@H]2Cc2ccc(O)cc2)N1C(=O)NCc1ccccc1 (some centres unmarked) [Compound 15]	4.2
CN1CC(=O)N2C(CN(Cc3ccccc3Cl)C(=O)[C@@H]2Cc2ccc(O)cc2)N1C(=O)NCc1ccccc1 (some centres unmarked) [Compound 17]	14.3
CN1CC(=O)N2C(CN(Cc3cccc(Cl)c3)C(=O)[C@@H]2Cc2ccc(O)cc2)N1C(=O)NCc1ccccc1 (some centres unmarked) [Compound 18]	3.3
CN1CC(=O)N2C(CN(Cc3ccc(Cl)cc3Cl)C(=O)[C@@H]2Cc2ccc(O)cc2)N1C(=O)NCc1ccccc1 (some centres unmarked) [Compound 19]	11.5
C[C@H](c1ccccc1)N1CC2N(C(=O)CN(C)N2C(=O)NCc2ccccc2)[C@@H](Cc2ccc(O)cc2)C1=O (some centres unmarked) [Compound 20]	5.1
COc1ccc(CN2CC3N(C(=O)CN(C)N3C(=O)NCc3ccccc3)[C@@H](Cc3ccc(O)cc3)C2=O)cc1 (some centres unmarked) [Compound 22]	10.4
COc1cccc(CN2CC3N(C(=O)CN(C)N3C(=O)NCc3ccccc3)[C@@H](Cc3ccc(O)cc3)C2=O)c1OC (some centres unmarked) [Compound 23]	10.7
CN1CC(=O)N2[C@@H](Cc3ccc(O)cc3)C(=O)N(Cc3ccc4ccccc4c3)C[C@@H]2N1C(=O)NCc1ccccc1 [Compound 24]	5
CN1CC(=O)N2[C@@H](Cc3ccc(O)cc3)C(=O)N(Cc3ccc(F)c4ccccc34)C[C@@H]2N1C(=O)NCc1ccccc1 [Compound 25]	3
COc1ccccc1CN1C[C@H]2N(C(=O)CN(C)N2C(=O)NCc2ccccc2)[C@@H](Cc2ccc(O)cc2)C1=O [Compound 26]	7.1

SMILES	IC50 [µM]
CN1CC(=O)N2[C@@H](Cc3ccc(O)cc3)C(=O)N(Cc3ccc(Cl)cc3)C[C@@H]2N1C(=O)NCc1ccccc1 [Compound 28]	7.5
CN1CC(=O)N2[C@@H](Cc3ccc(O)cc3)C(=O)N(Cc3ccc(Cl)c(Cl)c3)C[C@@H]2N1C(=O)NCc1ccccc1 [Compound 29]	3.8
CN1CC(=O)N2[C@@H](Cc3ccc(O)cc3)C(=O)N(Cc3ccccc3OC(F)(F)F)C[C@@H]2N1C(=O)NCc1ccccc1 [Compound 30]	7.5
CN1CC(=O)N2[C@@H](Cc3ccc(O)cc3)C(=O)N(Cc3ccccc3SC(F)(F)F)C[C@@H]2N1C(=O)NCc1ccccc1 [Compound 31]	11.9
CN1CC(=O)N2[C@@H](Cc3ccc(O)cc3)C(=O)N(Cc3ccccc3C(F)(F)F)C[C@@H]2N1C(=O)NCc1ccccc1 [Compound 32]	4.1
CN1CC(=O)N2[C@@H](Cc3ccc(O)cc3)C(=O)N(Cc3cccc4ncccc34)C[C@@H]2N1C(=O)NCc1ccccc1 [Compound 33]	13
CN1CC(=O)N2[C@@H](Cc3ccc(O)cc3)C(=O)N(Cc3cccc4nccnc34)C[C@@H]2N1C(=O)NCc1ccccc1 [Compound 34]	4.4
CN1CC(=O)N2[C@@H](Cc3ccc(O)cc3)C(=O)N(Cc3cccc4ccccc34)C[C@@H]2N1C(=S)NCc1ccccc1 [Compound 35]	11.4
CN1CC(=O)N2[C@@H](CN(Cc3cccc4ccccc34)C(=O)[C@H]2c2ccc(O)cc2)N1C(=O)NCc1ccccc1 [Compound 36]	12.5
CC(c1ccc(F)cc1)N1C[C@H]2N(C(=O)CN(C)N2C(=O)NCc2ccccc2)[C@@H](Cc2ccc(O)cc2)C1=O (some centres unmarked) [Compound 37]	2.3
CN(C)c1cccc(CN2C[C@H]3N(C(=O)CN(C)N3C(=O)NCc3ccccc3)[C@@H](Cc3ccc(O)cc3)C2=O)c1 [Compound 38]	7.1
CN1CC(=O)N2[C@@H](Cc3ccc(O)cc3)C(=O)N(Cc3ccc4ccccc4n3)C[C@@H]2N1C(=O)NCc1ccccc1 [Compound 39]	9.7
CN1CC(=O)N2[C@@H](Cc3ccc(O)cc3)C(=O)N(Cc3cccc4occc34)C[C@@H]2N1C(=O)NCc1ccccc1 [Compound 40]	7
Cc1ccc([C@@H](C)N2C[C@H]3N(C(=O)CN(C)N3C(=O)NCc3ccccc3)[C@@H](Cc3ccc(O)cc3)C2=O)cc1 [Compound 41]	13.6
CN(C)c1cccc(F)c1CN1C[C@H]2N(C(=O)CN(C)N2C(=O)NCc2ccccc2)[C@@H](Cc2ccc(O)cc2)C1=O [Compound 42]	18.2
CN(C)c1ccccc1CN1C[C@H]2N(C(=O)CN(C)N2C(=O)NCc2ccccc2)[C@@H](Cc2ccc(O)cc2)C1=O [Compound 43]	5.2
CN1CC(=O)N2[C@@H](Cc3ccc(O)cc3)C(=O)N(Cc3ccc(F)cc3C(F)(F)F)C[C@@H]2N1C(=O)NCc1ccccc1 [Compound 44]	1.3
CN(C)c1cc(Cl)ccc1CN1C[C@H]2N(C(=O)CN(C)N2C(=O)NCc2ccccc2)[C@@H](Cc2ccc(O)cc2)C1=O [Compound 45]	2.2
CCN(C)c1cccc(CN2C[C@H]3N(C(=O)CN(C)N3C(=O)NCc3ccccc3)[C@@H](Cc3ccc(O)cc3)C2=O)c1 [Compound 46]	4.4

SMILES	IC50 [µM]
CCN(CC)c1cccc(CN2C[C@H]3N(C(=O)CN(C)N3C(=O)NCc3ccccc3)[C@@H](Cc3ccc(O)cc3)C2=O)c1 [Compound 47]	3.5
Cc1cccc(CN2C[C@H]3N(C(=O)CN(C)N3C(=O)NCc3ccccc3)[C@@H](Cc3ccc(O)cc3)C2=O)c1N(C)C [Compound 48]	10.9
CN(C)c1cc(F)c(F)cc1CN1C[C@H]2N(C(=O)CN(C)N2C(=O)NCc2ccccc2)[C@@H](Cc2ccc(O)cc2)C1=O [Compound 49]	1.4
CN(C)c1cc(F)ccc1CN1C[C@H]2N(C(=O)CN(C)N2C(=O)NCc2ccccc2)[C@@H](Cc2ccc(O)cc2)C1=O [Compound 50]	1.3
Cc1cc(C)c(N(C)C)c(CN2C[C@H]3N(C(=O)CN(C)N3C(=O)NCc3ccccc3)[C@@H](Cc3ccc(O)cc3)C2=O)c1 [Compound 51]	4.8
CN1CC(=O)N2[C@@H](Cc3ccc(OCC(=O)O)cc3)C(=O)N(Cc3cccc4ccccc34)C[C@@H]2N1C(=O)NCc1ccccc1 [Compound 52]	25
CN(C1CC1)C1CC=CC=C1CN1C[C@H]2N(C(=O)CN(C)N2C(=O)NCc2ccccc2)[C@@H](Cc2ccc(O)cc2)C1=O (some centres unmarked) [Compound 53]	9 ± 1.5
CC(C)N(C)c1cc(CN2C[C@H]3N(C(=O)CN(C)N3C(=O)NCc3ccccc3)[C@@H](Cc3ccc(O)cc3)C2=O)ccc1Cl [Compound 54]	23.6 ± 5.6
CCCN(C)c1cccc(CN2C[C@H]3N(C(=O)CN(C)N3C(=O)NCc3ccccc3)[C@@H](Cc3ccc(O)cc3)C2=O)c1 [Compound 55]	7.2 ± 1.4
CN1CC(=O)N2[C@@H](Cc3ccc(O)cc3)C(=O)N(Cc3cccc4c3cnn4C)C[C@@H]2N1C(=O)NCc1ccccc1 [Compound 56]	9.3 ± 1.6
CN(c1cccc(CN2C[C@H]3N(C(=O)CN(C)N3C(=O)NCc3ccccc3)[C@@H](Cc3ccc(O)cc3)C2=O)c1)C1CC1 [Compound 57]	9.4 ± 1.5
C[C@H](c1ccc(F)c(N(C)C)c1)N1C[C@H]2N(C(=O)CN(C)N2C(=O)NCc2ccccc2)[C@@H](Cc2ccc(O)cc2)C1=O [Compound 59]	5.3 ± 1.3
CC(c1cc(N(C)C)cc(C(F)(F)F)c1)N1C[C@H]2N(C(=O)CN(C)N2C(=O)NCc2ccccc2)[C@@H](Cc2ccc(O)cc2)C1=O (some centres unmarked) [Compound 60]	6.9 ± 1.7
C[C@H](c1cccc(N(C)C)c1)N1C[C@H]2N(C(=O)CN(C)N2C(=O)NCc2ccccc2)[C@@H](Cc2ccc(O)cc2)C1=O [Compound 61]	25.8
CC(C)N(C)c1cc([C@@H](C)N2C[C@H]3N(C(=O)CN(C)N3C(=O)NCc3ccccc3)[C@@H](Cc3ccc(O)cc3)C2=O)ccc1F [Compound 62]	9.7 ± 1.7
CN1CC(=O)N2[C@@H](Cc3ccc(O)cc3)C(=O)N(Cc3cccc(N4CCCC4)c3)C[C@@H]2N1C(=O)NCc1ccccc1 [Compound 63]	4.1 ± 0.5
CCN(CC)c1cc(F)ccc1[C@H](C)N1C[C@H]2N(C(=O)CN(C)N2C(=O)NCc2ccccc2)[C@@H](Cc2ccc(O)cc2)C1=O [Compound 64]	25.3 ± 6.6
CC(C)N(C)c1ccc(F)c([C@H](C)N2C[C@H]3N(C(=O)CN(C)N3C(=O)NCc3ccccc3)[C@@H](Cc3ccc(O)cc3)C2=O)c1 [Compound 65]	19 ± 7.1
